Experimental data reported in ChEMBL document CHEMBL3612026, “Biological activity of N(4)-boronated derivatives of 2'-deoxycytidine, potential agents for boron-neutron capture therapy” (Bioorg Med Chem, 2015).
Activity calls are given as the source filed them. The rule behind the calls is not given here.

How the values were obtained:
[1] = Cytotoxicity against human SCC15 cells after 48 hrs by neutral red assay; format: functional, cell-based; conditions: SCC-15, 48 h
[2] = test system: SCC-15; assay: Induction of apoptosis in human SCC15 cells assessed as induction of […] fragmentation at 20 to 40 mM after 48 hrs by DAPI staining-based fluorescence assay; format: functional, cell-based
[3] = test system: SCC-15; assay: Binding affinity to DNA in human SCC-15 cells at 1 mM after 5 days by laser desorption/ionization mass spectrometric analysis; format: cell-based
[4] = test system: BJ; assay: Induction of apoptosis in human BJ cells assessed as induction of […] fragmentation at 5 to 40 mM after 48 hrs by DAPI staining-based fluorescence assay; format: cell-based; conditions: 40000 µM
[5] = test system: BJ; assay: Cytotoxicity against human BJ cells after 48 hrs by neutral red assay; format: cell-based
[6] = Cytotoxicity against human SCC15 cells after 48 hrs by XTT assay; format: functional, cell-based; conditions: SCC-15, 48 h
[7] = test system: BJ; assay: Cytotoxicity against human BJ cells after 48 hrs by XTT assay; format: cell-based
[8] = test system: SCC-15; assay: Induction of apoptosis in human SCC15 cells assessed as induction of […] fragmentation at 20 to 40 mM after 48 hrs by DAPI staining-based laser scanning confocal microscopic analysis; format: functional, cell-based
[9] = test system: BJ; assay: Induction of apoptosis in human BJ cells assessed as induction of […] fragmentation at 20 to 40 mM after 48 hrs by DAPI staining-based laser scanning confocal microscopic analysis; format: cell-based; conditions: 40000 µM

Structure (SMILES): CC1(C)OB(CNc2ccn([C@H]3C[C@@H](O)[C@@H](CO)O3)c(=O)n2)OC1(C)C
- IC50 [1]: 16.4 mM
- Activity [2]: Active
- Activity [3]: Active
- Activity [4]: Non-toxic
- IC50 [5]: 49.5 mM
- IC50 [6]: 18.8 mM
- IC50 [7]: 45.1 mM
- Activity [8]: Active
- Activity [9]: Non-toxic
